The record followed here is patent publication US20140212949A1, “METHOD FOR PREPARING MICROVESICULAR ADAM15” (INDUSTRY-ACADEMIC COOPERATION FOUNDATION, YONSEI UNIVERSITY, priority 2011, published 2014).

Common to all, as to assay type: cell-based, human
Test [1] concerns MCF-7 cells. Description: Flow cytometric analysis of cell- and exosomal-surface expression of ADAM15. The settings on record: flow cytometry; 5 ng/Ml PMA for 24 h. The method, then: FIG. 2 verifies that released ADAM15 is associated with exosomes, and exosome-mediated ADAM15 is secreted by PMA-stimulated PKC activation. […] Conditioned medium of MCF-7 cells treated with or without 5 ng/Ml PMA for 24 h was subjected to sequential centrifugation as follows: 300×g (P1), 1,200×g (P2), 10,000×g (P3), 100,000×g (P4), and 100,000×g after filtering through a 0.22-μm pore size filter (P4′). Pellets from each stage were subjected to western blotting analysis using an anti-ADAM15 cytoplasmic domain antibody. Arrows indicate pro-ADAM15 (P) and mature ADAM15 (M), respectively. […] Isolated microvesicles from conditioned medium of MCF-7 cells treated with 5 ng/Ml PMA were subjected to sucrose gradient centrifugation. Each fraction was concentrated prior to SDS-PAGE. […] After ultracentrifugation at 100,000×g, the pellets were analyzed by immunoblotting with antibody to ADAM15 cytoplasmic domain. […] Isolated exosomes were analyzed by immunoblotting with ADAM15 antibody. […] The percent changes in fluorescence intensity associated with the presence of ADAM15 are shown.
Flow cytometric analysis of exosomes was performed as previously described with minor modifications (Thery et al., 2001). […] Flow cytometry was performed on a FACSCalibur (BD Biosciences), and data were analyzed using WinMDI software version 2.8 (The Scripps Research Institute, La Jolla, Calif.).

Another test deals with HEK293F cells. Nature of the test: Exosomal ADAM15 enrichment in transfected HEK293F cells (immunoblotting). As to conditions: 5 ng/Ml PMA for 24 h. Here is the method: FIG. 3 verifies that ADAM15-rich exosomes have a high binding affinity for integrin αvβ3 and prevents interactions between integrin αvβ3 and vitronectin. […] FIGS. 3B and 3C show immunoblotting analysis. Prior to exosome isolation, transfected cells were stimulated with or without 5 ng/Ml PMA for 24 h, and the isolated exosomes were analyzed by immunoblotting analysis with the indicated antibodies. The exosomes were incubated with purified integrin αvβ3 (FIG. 3B) or α5β1 (FIG. 3C), followed by ultracentrifugation. The precipitates were analyzed by immunoblotting analysis. In the graphs, the immunoblotting results are represented by the relative intensity. […] Exosomes were incubated with purified integrin αvβ3 on a vitronectin-coated plate, and bound integrins were detected by anti-integrin αvβ3 antibody. […] After 2-h incubation, the number of bound cells was determined by MTT assay (OD: 540 nm). […]
(§1) Cells were incubated with or without PMA in serum-free medium or medium containing 5% FBS for 24 h. […] Protein concentration was measured by a modified Bradford assay (Bio-Rad Laboratories, Hercules, Calif.). […] The tubes were then ultracentrifuged at 100,000×g for 2.5 h in a Beckman SW 55 Ti rotor, and fractions with different densities were sequentially collected from the top of the tube and analyzed for exosomes containing ADAM15.

Test [2] has as its system MCF-7 cells. Nature of the test: Exosome-associated ADAM15 release from MCF-7 cells (sequential centrifugation, immunoblotting). As to conditions: 5 ng/Ml PMA for 24 h; 100,000×g pellet. Here is the method: FIG. 2 verifies that released ADAM15 is associated with exosomes, and exosome-mediated ADAM15 is secreted by PMA-stimulated PKC activation. […] Conditioned medium of MCF-7 cells treated with or without 5 ng/Ml PMA for 24 h was subjected to sequential centrifugation as follows: 300×g (P1), 1,200×g (P2), 10,000×g (P3), 100,000×g (P4), and 100,000×g after filtering through a 0.22-μm pore size filter (P4′). Pellets from each stage were subjected to western blotting analysis using an anti-ADAM15 cytoplasmic domain antibody. Arrows indicate pro-ADAM15 (P) and mature ADAM15 (M), respectively. […] After ultracentrifugation at 100,000×g, the pellets were analyzed by immunoblotting with antibody to ADAM15 cytoplasmic domain. […] Isolated exosomes were analyzed by immunoblotting with ADAM15 antibody. […] The percent changes in fluorescence intensity associated with the presence of ADAM15 are shown.
as §1

Test [3] concerns MCF-7 cells. Nature of the test: ADAM15 release from MCF-7 cells into conditioned medium and levels in cell lysates (western blotting). The method, then: FIG. 1 verifies that ADAM15 is released into the extracellular space. […] MCF-7 cells were incubated with 5 ng/Ml PMA in serum-free RPMI 1640 medium. P indicates pro-ADAM15 and M indicates mature ADAM15. In the results of the lower panel, data are represented as the mean±standard deviation of four experiments. *P<0.01; Student's t test. […] Cells were treated as described in the drawing. Arrows indicate pro-ADAM15 (P) and mature ADAM15 (M), respectively.
Cells were lysed in buffer containing 50 Mm Tris-HCl, pH 7.5, 5 mM EDTA, 150 mM NaCl, 1% Triton X-100, and protease inhibitor cocktail (Roche Applied Science, Indianapolis, Ind.) for 1 h at 4° C. and then centrifuged. The soluble portion of the lysate was used for western blotting, which was performed by separation of reduced or non-reduced samples on SDS-PAGE, followed by electroblotting to nitrocellulose membranes and detection of bound antibody by enhanced chemiluminescence (Amersham Biosciences, Pittsburgh, Pa.).
There are several studies showing that various membrane proteins are secreted into the extracellular space through ectodomain shedding or microvesicle release (van Kilsdonk et al., 2010). Here, we examined whether ADAM15 protein is released from human breast cancer MCF-7 cells into conditioned medium. Mature ADAM15 was detected in the conditioned medium by immunoblotting analysis with an antibody against ADAM15 extracellular domain (FIG. 1A). […] In MCF-7 cells, both the pro and mature forms of ADAM15 were detected. […] The mRNA levels of ADAM15 after PMA stimulation were also assessed. […] We further investigated whether released ADAM15 was generated by ectodomain shedding.

Test [4] relates to MCF-7 cells. Description: Semi-quantitative RT-PCR analysis of ADAM15 mRNA in MCF-7 cells. The settings on record: 5 ng/Ml PMA for the indicated times.
For another test, the system named is THP-1 cells. Description: Release of exosomal ADAM15 from THP-1 cells. As to conditions: THP-1 cells incubated with PMA in serum-free medium for 24 h. Here is the method: (§2) FIG. 9 verifies that the release of exosomal ADAM15 is further induced by LPS stimulation in differentiated THP-1 macrophages. […] THP-1 cells were incubated with PMA in serum-free medium for 24 h. Arrows indicate pro-ADAM15 and mature ADAM15, respectively. Total protein bands of exosomes were shown by Coomassie blue staining (middle penal). In the graph of the right panel, data are represented as the mean±standard deviation of three experiments. […] PMA-differentiated THP-1 cells were washed with PBS and further cultured for 2˜3 days. THP-1 macrophages were incubated with LPS in serum-free medium for 18 h. Exosomes were isolated from conditioned media. Arrows indicate pro-ADAM15 and mature ADAM15, respectively. Total protein bands of exosomes were shown by Coomassie blue staining (middle penal). The right panel represents the mean and standard deviation of three experiments. […] THP-1 cells were treated with or without PMA and/or LPS in serum-free medium for 18 h. […]
as §1

The next test has as its system MDAH-2774 cells. Description: Effect of PKC inhibitor on secretion of exosome-associated ADAM15. As to conditions: PMA and indicated concentrations of calphostin C for 24 h.
In another test the test system is THP-1 macrophages. Nature of the test: Release of exosomal ADAM15 from differentiated THP-1 macrophages. As to conditions: THP-1 macrophages incubated with LPS in serum-free medium for 18 h. Here is the method: as §2, §1

Regarding `CCCCCCCCCCCCCC(=O)O[C@@H]1[C@@H](C)[C@@]2(O)[C@@H](C=C(CO)C[C@]3(O)C(=O)C(C)=C[C@@H]23)[C@@H]2C(C)(C)[C@]12OC(C)=O` [PMA, phorbol 12-myristate 13-acetate], in the test on MCF-7 cells [1], the “exosomal-surface ADAM15” value is “increase” and the “plasma membrane-associated ADAM15” value is on record as “decrease”. Further, in the test on HEK293F cells, the “exosomal ADAM15 in exosomes of ADAM15-transfected cells” value is listed as “further exosomal enrichment”. For the same compound, in the test on MCF-7 cells [2], the “amount of exosomal ADAM15” value is “increased”. In the test with MCF-7 cells [3] (5 ng/Ml PMA, serum-free RPMI 1640, antibody against ADAM15 extracellular domain), the “ADAM15 release into conditioned medium” value is “largely increased”. Further, the “other membrane proteins ADAM10 and E-cadherin in cells” value with MCF-7 cells [3] (cell lysates after PMA stimulation) was “unchanged”. In the test on MCF-7 cells [3] (cell lysates, time after PMA stimulation, barely detectable after 24 hrs), the “pro and mature forms of ADAM15 in cells” value is “decreased with time”. In addition, in the test on MCF-7 cells [4], the “ADAM15 mRNA levels” value was “unchanged”. For the same compound, the “release of exosomal ADAM15” value in the test on THP-1 cells was “effectively increased”.
In the case of calphostin C, the “PMA-stimulated ADAM15 release” value in the test on MDAH-2774 cells is recorded as “successfully blocked”.
Take lipopolysaccharide [LPS]: the “release of exosomal ADAM15” value in the test on THP-1 macrophages is on record as “enhanced”.
